Where two headings read alike, the source gives them in different places. Non-standard residues stand in square brackets, D forms with d. Residues, ends and D or L forms follow the SMILES beside them. *: point of attachment. dPhe(4-Br) = N[C@H](Cc1ccc(Br)cc1)C(=O)O; Agmatine = N=C(N)NCCCCN*
Target: thrombin (Homo sapiens, UniProt P00734)
Experiment: colorimetric microplate assay with synthetic peptide substrates, inhibition of thrombin
Assay type: biochemical
Description: The compounds were tested for inhibition of thrombin and trypsin using a colorimetric microplate assay with synthetic peptide substrates as described by Tapparelli, J. Biol. Chem. 268:4734 (1993). […]

[1] = values not in parentheses (purified compounds, error less than 10%), '-' = not active, read-out: Ki Thrombin

Ki (most active compound, read-out: Ki) | Ki [1] | SMILES
0.041 µM | – | N=C(N)NCCCCNC(=O)[C@@H]1CCCN1C(=O)[C@H](N)Cc1ccc(Br)cc1 [Compound A3B1] (H-[dPhe(4-Br)]-Pro-Agmatine)
– | 0.69 µM | NCCCCCNC(=O)[C@@H]1CCCN1C(=O)[C@H](N)Cc1ccccc1 [Compound A2B9]
– | 0.12 µM | NC(N)=NCCCCNC(=O)[C@@H]1CCCN1C(=O)[C@H](N)Cc1ccccc1 [Compound A2B1] (H-[dF]-Pro-Agmatine)

From patent EP0818744A2, “Process for selecting candidate drug compounds” (Proteus Molecular Design Limited, priority 1996, dated 1998)
